# From patent US12527779B2, “Prostaglandin E2 (PGE2) EP4 receptor antagonists” (Domain Therapeutics, priority 2019, dated 2026)
# pIC50: −log10 of the molar value.
# Key:
# CT26 tumor cells = experiment: In vivo anti-tumoral activity in a CT26 tumor model; parameters: species or system BALB/c mice; settings: Example 25 150 mg/kg po BID combined with anti-PD-1 antibody 200 μg/mouse iv Q3D; 12 mice per group
# Method: (§1) CT26 tumor cells were maintained in vitro as a monolayer culture in RPM11640 medium supplemented with 10% fetal bovine serum at 37° C. in an atmosphere of 5% CO2 in air. The cells were routinely subcultured twice weekly by trypsin-EDTA treatment. The cells in an exponential growth phase were harvested and counted for tumor inoculation.
# Female BALB/c mice were inoculated subcutaneously in the right rear flank region with CT26 tumor cells (5×10^5) in 0.1 ml of PBS for tumor development on day 0. Tumor volumes were measured thrice per week in two dimensions using a caliper, and the volume was expressed in mm^3 using the formula: “V=(L×W×W)/2”, where V is tumor volume, L is tumor length (the longest tumor dimension) and W is tumor width (the longest tumor dimension perpendicular to L). […]
# Animals were checked daily for morbidity and mortality. During routine monitoring, the animals were checked for any effects on tumor growth and treatments on behavior such as mobility, food and water consumption, body weight gain/loss (body weights were measured thrice per week), eye/hair matting and any other abnormalities. […] The body weights and tumor volumes were monitored by using StudyDirector™ software (version 3.1.399.19).
# [1] = molecular target: T1, human EP4 (hEP4) receptor (Homo sapiens, UniProt P35408); experiment: In vitro human EP4 functional antagonist activity using BRET biosensors (cAMP EPAC biosensor, TCS2510 stimulation); format: cell-based; settings: antagonist activity vs EC60 TCS2510, hEP4 in HEK-293 T cells
# T1 construct: expressed in transfected cells; host or cells: HEK-293 T cells, transient co-transfection with polyethylenimine
# In short: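 Antagonism measured as inhibition of EC60 TCS2510-induced cAMP BRET signal (EPAC luciferase/GFP sensor) in transiently hEP4-expressing HEK-293T cells, following 5 min compound preincubation and 10 min luminescence recording. Plates equilibrated 1 h at 22 °C in HEPES buffer; 10 concentrations over 4.5 logs, duplicate in two independent experiments, sigmoidal variable-slope IC50.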
# Pan02 tumor cells = experiment: In vivo anti-tumoral activity of Example 25 in a Pan02 tumor model; parameters: species or system C57BL/6 mice
# Method: as §1, with “Pan02” for “CT26”
# Female C57BL/6 mice were inoculated subcutaneously in the right rear flank region with Pan02 tumor cells (3×10^6) in 0.1 ml of PBS for tumor development on day 0. Tumor volumes were measured thrice per week in two dimensions using a caliper, and the volume was expressed in mm^3 using the formula: “V=(L×W×W)/2”, where V is tumor volume, L is tumor length (the longest tumor dimension) and W is tumor width (the longest tumor dimension perpendicular to L). When the mean tumor size reached approximately 100 mm^3, mice were randomly allocated into groups (10 mice per group) and treated with either a control antibody (rIgG2a(2A3), 200 μg/mouse, iv, Q3D) or an anti-PD-1 antibody (RPM1-14, 200 μg/mouse, iv, Q3D), with or without the compound of Example 25 (150 mg/kg, po, 0.5% MC, BID, BID time interval: 8 h) for at least 3 weeks.
# Animals were checked daily for morbidity and mortality. During routine monitoring, the animals were checked for any effects on tumor growth and treatments on behavior such as mobility, food and water consumption, body weight gain/loss (body weights were measured thrice per week), eye/hair matting and any other abnormalities. Dosing as well as tumor and body weight measurements were conducted in a Laminar Flow Cabinet. The body weights and tumor volumes were monitored by using StudyDirector™ software (version 3.1.399.19).
# T1 sequence (P35408 whole entry): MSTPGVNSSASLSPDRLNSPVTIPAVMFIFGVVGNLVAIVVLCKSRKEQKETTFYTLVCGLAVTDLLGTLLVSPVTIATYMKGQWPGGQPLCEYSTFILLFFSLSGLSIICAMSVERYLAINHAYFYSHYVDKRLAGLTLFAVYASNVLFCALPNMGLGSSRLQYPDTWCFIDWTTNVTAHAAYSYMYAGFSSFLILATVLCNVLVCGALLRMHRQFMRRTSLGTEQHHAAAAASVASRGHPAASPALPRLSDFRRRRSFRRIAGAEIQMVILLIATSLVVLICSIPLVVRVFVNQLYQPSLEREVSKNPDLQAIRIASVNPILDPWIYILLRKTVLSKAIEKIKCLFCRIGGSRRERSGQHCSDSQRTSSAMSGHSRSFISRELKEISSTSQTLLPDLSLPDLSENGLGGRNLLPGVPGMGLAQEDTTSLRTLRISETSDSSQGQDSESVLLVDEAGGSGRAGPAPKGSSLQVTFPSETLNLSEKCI
compound,measurement,setting,value
"CN(CCOc1ccccc1)C1(C(=O)NC2(c3ccc(C(=O)O)cc3)CC2)CCOCC1.Cl [Example 25, 4-[1-[[4-[Methyl(2-phenoxyethyl)amino]tetrahydropyran-4-carbonyl]amino]cyclopropyl]benzoic acid, hydrochloride]",cases of complete tumor regression,CT26 tumor cells,5 cases
same,"complete tumor regression, % of the test animals",CT26 tumor cells,42%
same,pIC50,[1],> 7.00
same,Tumor Growth Inhibition TGI (%),"Pan02 tumor cells; Example 25 150 mg/kg po BID + anti-PD1 antibody 0.2 mg/animal Q3D, day 0",0.1%
same,Tumor Growth Inhibition TGI (%),"Pan02 tumor cells; Example 25 150 mg/kg po BID + anti-PD1 antibody 0.2 mg/animal Q3D, day 3",10.9%
same,Tumor Growth Inhibition TGI (%),"Pan02 tumor cells; Example 25 150 mg/kg po BID + anti-PD1 antibody 0.2 mg/animal Q3D, day 7",16.9%
same,Tumor Growth Inhibition TGI (%),"Pan02 tumor cells; Example 25 150 mg/kg po BID + anti-PD1 antibody 0.2 mg/animal Q3D, day 10",26.1%
same,Tumor Growth Inhibition TGI (%),"Pan02 tumor cells; Example 25 150 mg/kg po BID + anti-PD1 antibody 0.2 mg/animal Q3D, day 14",51.1%
same,Tumor Growth Inhibition TGI (%),"Pan02 tumor cells; Example 25 150 mg/kg po BID + anti-PD1 antibody 0.2 mg/animal Q3D, day 17",62.8%
same,Tumor Growth Inhibition TGI (%),"Pan02 tumor cells; Example 25 150 mg/kg po BID + anti-PD1 antibody 0.2 mg/animal Q3D, day 21, hydrochloride, 150 mg/kg",71.0%
same,Tumor Growth Inhibition TGI (%),"Pan02 tumor cells; Example 25 150 mg/kg po BID + rIgG2a, day 0",0.0%
same,Tumor Growth Inhibition TGI (%),"Pan02 tumor cells; Example 25 150 mg/kg po BID + rIgG2a, day 3",15.6%
same,Tumor Growth Inhibition TGI (%),"Pan02 tumor cells; Example 25 150 mg/kg po BID + rIgG2a, day 7",22.5%
same,Tumor Growth Inhibition TGI (%),"Pan02 tumor cells; Example 25 150 mg/kg po BID + rIgG2a, day 10",25.1%
same,Tumor Growth Inhibition TGI (%),"Pan02 tumor cells; Example 25 150 mg/kg po BID + rIgG2a, day 14",51.5%
same,Tumor Growth Inhibition TGI (%),"Pan02 tumor cells; Example 25 150 mg/kg po BID + rIgG2a, day 17",61.8%
same,Tumor Growth Inhibition TGI (%),"Pan02 tumor cells; Example 25 150 mg/kg po BID + rIgG2a, day 21, hydrochloride, 150 mg/kg",68.5%
